Assay results reported in paper PMC7290078, “Agonist bias and agonist‐dependent antagonism at corticotrophin releasing factor receptors” (Pharmacology Research & Perspectives, 2020).
No end group written: not given here.

How the values were obtained:
CRF2 receptor = test system: CRF2 receptor; parameters: method as in PMID 11123370, PMID 12615952; details: cited from earlier work
CRF2 receptor (hCRF2α) [1] = target: T1, CRF2 receptor (hCRF2α) (Homo sapiens, UniProt Q13324); test: cAMP accumulation (LANCE) in Cos7 cells transfected with hCRF2α, agonist stimulation; type: cell-based
T1 construct: host or cells: Cos7 cells, transient transfection (PEI), pcDNA3.0/3.1 vector
T1 sequence (Q13324 1-411): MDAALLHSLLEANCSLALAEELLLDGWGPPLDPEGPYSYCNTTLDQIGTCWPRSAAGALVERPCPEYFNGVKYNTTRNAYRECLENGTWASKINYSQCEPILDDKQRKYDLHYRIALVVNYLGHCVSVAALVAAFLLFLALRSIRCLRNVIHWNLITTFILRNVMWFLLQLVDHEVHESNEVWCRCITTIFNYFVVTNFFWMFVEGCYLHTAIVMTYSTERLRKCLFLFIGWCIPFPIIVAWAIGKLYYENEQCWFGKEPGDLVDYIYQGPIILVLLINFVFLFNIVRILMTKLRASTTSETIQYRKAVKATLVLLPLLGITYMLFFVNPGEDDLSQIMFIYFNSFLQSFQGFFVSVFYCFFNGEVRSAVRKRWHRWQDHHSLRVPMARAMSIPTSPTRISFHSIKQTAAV
Excerpt: (§1) Plasmids containing hCRF1α and hCRF2α (GenBank accession numbers AY457172 and AY449734) were obtained from the cDNA Resource Centre (Bloomsburg University) and are referred to as CRF1 and CRF2 in this manuscript. Hemagglutinin (HA) epitope‐tagged human Calcitonin (CT) receptor (CT(a) splice variant) and myc‐tagged human RAMP1 were used as described previously. ^27 HA‐tagged human calcitonin receptor‐like receptor (CLR), N‐terminal FLAG‐tagged human RAMP3 and N‐terminal myc‐tagged human RAMP3 were a gift from Professor David Poyner (Aston University) and Professor Patrick Sexton (Monash University), respectively. N‐terminal FLAG‐tagged human RAMP2 was used as described previously. ^28 All receptors and RAMPs were cloned in pcDNA3.0 or pcDNA3.1 plasmid vectors. All plasmid inserts were sequenced at the Centre for Genomics, Proteomics and Metabolomics (University of Auckland) and the sequences were verified prior to use.
(§2) Cos7, HEK‐293S, and HEK‐293T cells were cultured as described previously. ^28 , ^29 Cos7 cells were originally supplied by the ATCC to Associate Professor Nigel Birch (University of Auckland). HEK‐293S cells were a gift from Professor David Poyner (Aston University) and HEK‐293T cells a gift from Professor John Taylor (University of Auckland). Briefly, all cell lines were cultured in Dulbecco's Modified Eagle Medium (DMEM) supplemented with 8% heat inactivated fetal bovine serum (FBS) and maintained in a humidified incubator at 37°C with 5% CO2. For transfection, cells were counted (Countess CounterTM; Life Technologies) and plated at a density of 20 000 cells per well in 96‐well plates. The cells were transiently transfected 48 hours prior to assaying using polyethylenimine (PEI), as described previously. ^28 , ^29 In all experiments a total of 0.25 μg DNA was transfected per well. In the majority of experiments 0.25 μg DNA of receptor‐containing plasmid or the pcDNA3.1 plasmid without an insert was used. For experiments involving RAMPs, 0.125 μg of receptor DNA and 0.125 μg of RAMP‐containing plasmid DNA were transfected to give a 1:1 ratio of receptor to RAMP. Where the RAMP or receptor were transfected alone, the ratio of DNA was made up with the pcDNA3.1 plasmid.
cAMP accumulation in Cos7 cells transfected with hCRF1α or hCRF2α receptors was measured using the LANCE cAMP detection assay kit (PerkinElmer Life and Analytical Sciences) as described previously. ^30 Briefly, culture media was removed and replaced with DMEM containing 0.1% bovine albumin serum (BSA) and 1 mmol/L 3‐isobutyl‐1‐methylxanthine (IBMX) for 30 minutes at 37°C. Cells were incubated for an additional 15 minutes at 37°C with media or agonist concentrations of 1 pmol/L to 1 µmol/L for agonist only assays or 10 pmol/L to 10 µmol/L concentrations for antagonist experiments. Antagonists were added simultaneously or immediately prior to the addition of agonists. To stop cell stimulation and extract cAMP, the contents of the wells were replaced with 50 µL absolute ethanol. Samples were left at −20°C for a minimum of 10 minutes. The ethanol was evaporated and replaced with 50 µL of cAMP detection buffer. Samples were shaken for 15 minutes before 5 µL cell lysate was transferred to a white 384‐well optiplate and processed for cAMP quantification as described previously. ^31 Samples were read using an Envision plate reader (PerkinElmer). cAMP concentrations were determined from a standard curve generated in duplicate.
In all experiments the position of peptides and antagonists (pharmacology) or transfected receptors (ELISAs) on assay plates was randomized during each independent experiment, which are independent biological replicates. In all cases, duplicate, triplicate, or quadruplicate technical replicates were conducted for each independent experiment.

CRF2 receptor (hCRF2α) [2] = target: T1, CRF2 receptor (hCRF2α); test: IP1 accumulation (IP-one Gq) in Cos7 cells transfected with hCRF2α, agonist stimulation; type: cell-based
Excerpt: as §1, §2
The IP‐one Gq assay kit (Cisbio) was used to quantify accumulated myo‐inositol‐1‐phosphate (IP1), a by‐product of IP3 produced after receptor‐mediated Gαq activation in Cos7 and HEK‐293S cells. Briefly, culture media was removed and replaced with DMEM containing 0.1% BSA for 30 minutes at 37°C. Cells were then incubated with media containing 50 mmol/L lithium chloride (LiCl) for an additional 0‐120 minutes (time courses) or 90 minutes at 37°C in the presence or absence of an antagonist. Agonist concentrations of 1 pmol/L to 10 µmol/L were used for agonist only assays or 10 pmol/L to 10 µmol/L concentrations for antagonist experiments. After cell stimulation, 14 µL of stimulation buffer was added to each well. Three microlitres of each detection antibody were added in turn to the plate and incubated at room temperature for 1 hour. Fifteen microliters of sample was then transferred to a 384‐well optiplate and read by an Envision plate reader (PerkinElmer). IP1 concentrations were calculated from a standard curve generated in duplicate.
In all experiments the position of peptides and antagonists (pharmacology) or transfected receptors (ELISAs) on assay plates was randomized during each independent experiment, which are independent biological replicates. […]

CRF2 receptor (hCRF2α) [3] = target: T1, CRF2 receptor (hCRF2α); test: Antagonism of agonist-mediated IP1 accumulation in Cos7 cells expressing CRF2 receptors; type: cell-based
Excerpt: as §1
Cos7, HEK‐293S, and HEK‐293T cells were cultured as described previously. ^28 , ^29 Cos7 cells were originally supplied by the ATCC to Associate Professor Nigel Birch (University of Auckland). HEK‐293S cells were a gift from Professor David Poyner (Aston University) and HEK‐293T cells a gift from Professor John Taylor (University of Auckland). Briefly, all cell lines were cultured in Dulbecco's Modified Eagle Medium (DMEM) supplemented with 8% heat inactivated fetal bovine serum (FBS) and maintained in a humidified incubator at 37°C with 5% CO2. For transfection, cells were counted (Countess CounterTM; Life Technologies) and plated at a density of 20 000 cells per well in 96‐well plates. […]
The IP‐one Gq assay kit (Cisbio) was used to quantify accumulated myo‐inositol‐1‐phosphate (IP1), a by‐product of IP3 produced after receptor‐mediated Gαq activation in Cos7 and HEK‐293S cells. […] Fifteen microliters of sample was then transferred to a 384‐well optiplate and read by an Envision plate reader (PerkinElmer). IP1 concentrations were calculated from a standard curve generated in duplicate. […]

## IVLSLDVPIGLLQILLEQARARAAREQATTNARILARVGHC-NH2 (C-terminus assumed) [UCN2]
CRF2 receptor
  binding affinity in words: high affinity
CRF2 receptor (hCRF2α) [1]; CRF2 receptor
  concentration‐dependent increase in cAMP: concentration‐dependent increases
CRF2 receptor (hCRF2α) [1]; cAMP (reference pathway), hCRF2α, reference agonist UCN1, mean ± SEM, n = 5
  ΔΔlog(τ/K A) (signaling bias): 0.00 ± 0.27
CRF2 receptor (hCRF2α) [1]; cAMP, CRF2 receptor
  Hill slope: not significantly different from one
CRF2 receptor (hCRF2α) [1]; cAMP, hCRF2α, reference agonist UCN1, mean ± SEM, n = 5
  Δlog(τ/K A) (relative efficacy): −0.55 ± 0.19
CRF2 receptor (hCRF2α) [2]; CRF2 receptor
  concentration‐dependent increase in IP1 accumulation: concentration‐dependent increases
CRF2 receptor (hCRF2α) [2]; IP1, CRF2 receptor
  Hill slope: not significantly different from one
CRF2 receptor (hCRF2α) [2]; IP1, hCRF2α, reference agonist UCN1, mean ± SEM, n = 5
  Δlog(τ/K A) (relative efficacy): −1.42 ± 0.13
CRF2 receptor (hCRF2α) [2]; IP1 relative to cAMP, hCRF2α, reference agonist UCN1, mean ± SEM, n = 5
  ΔΔlog(τ/K A) (signaling bias): −0.87 ± 0.23

## DNPSLSIDLTFHLLRTLLELARTQSQRERAEQNRIIFDSV-NH2 [UCN1]
CRF2 receptor (hCRF2α) [1]; cAMP, hCRF2α, Cos7, 15 min at 37°C, 1 mmol/L IBMX, 1 pmol/L to 1 µmol/L agonist, mean ± SEM, n = 5
  EC50: 0.0955 nM
CRF2 receptor (hCRF2α) [2]; IP1, hCRF2α, Cos7, 90 min at 37°C, 50 mmol/L LiCl, 1 pmol/L to 10 µmol/L agonist, mean ± SEM, n = 5
  EC50: 4.68 nM

## CCC(CC)Nc1cc(C)nc(Oc2c(C)cc(C)cc2C)c1C [CP‐376,395]
CRF2 receptor (hCRF2α) [3]; 100 µmol/L, CRF2 receptor
  effect on CRF‐mediated IP1 accumulation: appeared to be abolished
CRF2 receptor (hCRF2α) [3]; IP1, CRF2 receptor, F tests
  effect on agonist E max: a reduction in E max
CRF2 receptor (hCRF2α) [3]; agonist UCN1, IP1, hCRF2α, Gaddum method for insurmountable antagonism, mean ± SEM, n = 6
  antagonist potency (pKB): 3.40 ± 0.29
